The numbers were not newly measured in US20210308436A1, “COMPLETE UPPER RESPIRATORY TRACT CLEANSING SYSTEM AND ITS USE” (priority 2013, published 2021), which cites them from elsewhere.

Where a name gives a salt, the structure may show the parent alone.

The subject of this data set is perennial allergic rhinitis. The following applies: 1% solution in normal saline, once every 48 hours for 4 weeks, vs placebo wash (normal saline only).

As for `CN[C@@H](C)[C@H](O)c1ccccc1` [ephedrine hydrochloride], the “peak nasal inspiratory flow rates” value was “significant improvement” and the symptom scores entry is recorded as “significant improvement”.
